The record followed here is the RepoRT retention time repository.

The nature of the data set: HILIC, Waters ACQUITY UPLC BEH Amide, 100 × 2.1 mm, 1.7 µm; A: water + 0.125% formic acid + 10 mM ammonium formate; B: 5% water + 95% acetonitrile + 0.125% formic acid + 10 mM ammonium formate; gradient (min/%B) 0/100 2/100 7.7/70 9.5/40 10.25/30 12.75/100 17/100. As to conditions: stereoisomer not certain.
In the case of `COc1cc2ccc(=O)oc2cc1O` [Scopoletin], the LC retention time was 1.16 min.

`CC12CCC3C(CCC4=CC(=O)CCC43C)C1CCC2=O` (stereo not given) [Androstenedione]: the LC retention time amounted to 1.09 min. To `O=c1ccn(C2OC(CO)C(O)C2O)c(=S)[nH]1` (stereo not given) [2-Thiouridine] belongs 2.48 min; to `CCN(CC)CCOC(=O)C(O)(c1ccccc1)c1ccccc1` [Benactyzine], 2.16 min; to `O=c1[nH]cnc2c1ncn2C1OC(CO)C(O)C1O` (stereo not given) [Inosine], 6.19 min. The value for `O=C1c2c(O)cc(O)cc2OC(c2ccc(O)c(O)c2)C1O` (stereo not given) [Taxifolin] was 1.78 min. Consider `Nc1nc2c(ncn2C2CC(OP(=O)(O)O)C(CO)O2)c(=O)[nH]1` (stereo not given) [2'-Deoxyguanosine 3'-monophosphate], for which the LC retention time is 9.43 min. For `O=C(O)CC(O)CC(O)C=Cc1c(C2CC2)nc2ccccc2c1-c1ccc(F)cc1` (stereo not given) [Pitavastatin], the LC retention time came out at 1.36 min. To `Nc1nc2c(ncn2C2OC(CO)C(O)C2O)c(=O)[nH]1` (stereo not given) [Guanosine] belongs 7.33 min; to `CSCCC(NC(=O)CCC(N)C(=O)O)C(=O)O` (stereo not given) [gamma-Glutamylmethionine], 8.55 min; to `Cc1cn(C2OC(CO)CC2O)c(=O)[nH]c1=O` (stereo not given) [5-Methyl-3-deoxyuridine], 2.6 min.

As to `CNC(=C[N+](=O)[O-])NCCSCc1csc(CN(C)C)n1` [Nizatidine], the LC retention time was 4.65 min. To `CN1CCC(=C2c3ccccc3C=Cc3ccccc32)CC1` [Cyproheptadine] belongs 2.31 min. The value for `CCCCCN=C(N)NN=Cc1c[nH]c2ccc(OC)cc12` [Tegaserod] was 2.84 min; that for `NC(=O)CCC(NC(=O)Cc1ccccc1)C(=O)O` (stereo not given) [Phenylacetylglutamine] was 6.03 min.

As to `CNCCC(Oc1ccccc1C)c1ccccc1` (stereo not given) [Atomoxetine], the LC retention time is 2.42 min. Consider `CC(Cc1ccc(C(C)C(=O)O)cc1)C(=O)O` (stereo not given) [Carboxyibuprofen], for which the LC retention time was found to be 1.11 min. To `CCOC(=O)c1ncn2c1CN(C)C(=O)c1cc(F)ccc1-2` [Flumazenil] belongs 1.08 min; to `O=C(c1ccccc1)c1c(O)cc(O)cc1O` [Phlorobenzophenone], 1.34 min. To `CCOC(=O)C(CCc1ccccc1)NC(C)C(=O)N1C(C(=O)O)CC2CCCC21` (stereo not given) [Ramipril] belongs 1.4 min; to `NC(=O)NCCC(=O)O` [3-Ureidopropionic acid], 5.6 min. To `Cc1nc2ccc(CN(C)c3ccc(C(=O)NC(CCC(=O)O)C(=O)O)s3)cc2c(=O)[nH]1` (stereo not given) [Raltitrexed] belongs 7.35 min; to `CCCCC(=O)N(Cc1ccc(-c2ccccc2-c2nn[nH]n2)cc1)C(C(=O)O)C(C)C` (stereo not given) [Valsartan], 1.69 min; to `NC(CCC(=O)NC(CS)C(=O)NCC(=O)O)C(=O)O` (stereo not given) [Glutathione (reduced)], 9.07 min. Turning to `O=C1CN2Cc3c(ccc(Cl)c3Cl)N=C2N1` [Anagrelide], the LC retention time was 1.82 min. To `CSCCC(N)C(=O)O` (stereo not given) [Methionine] belongs 7.37 min; to `CC(=O)CCCC(=O)O` [4-Acetylbutyric acid], 1.24 min; to `COc1ccc(C(=O)NCc2ccc(OCCN(C)C)cc2)cc1OC` [Itopride], 3.65 min. With `COc1cc(OC)c(C(=O)CCCN2CCCC2)c(OC)c1` [Buflomedil], the LC retention time was found to be 2.34 min. To `NC(N)=NCCCC(N)C(=O)NC(CO)C(=O)O` (stereo not given) [Arg-Ser] belongs 9.9 min. The value for `CC=C1N(C)C(C)CC1(c1ccccc1)c1ccccc1` (stereo not given) [EDDP] was 1.9 min; that for `O=C1CCC(C(=O)N2CSCC2C(=O)O)N1` (stereo not given) [Pidotimod] was 7.3 min. To `NCCCCCN` [Cadaverine] belongs 8.99 min; to `NCCc1ccccn1` [2-(2-Aminoethyl)pyridine], 5.52 min.

As for `O=C(c1ccccc1)c1ccc2n1CCC2C(=O)O` (stereo not given) [Toradol], the LC retention time was 1.29 min. The value for `O=C(CO)c1ccccc1` [2-Hydroxyacetophenone] was 4.36 min. `CC(C=CC1=C(C)CCCC1(C)C)=CC=CC(C)=CC(=O)O` [Retinoic acid]: the LC retention time came to 1.11 min. The value for `CC(=O)NCCCCC(N)C(=O)O` (stereo not given) [N-epsilon-Acetyllysine] was 8.03 min; that for `OC1CCCCC1O` (stereo not given) [1,2-Cyclohexanediol] was 4.88 min.

In the case of `CCC(O)CC(=O)O` (stereo not given) [3-Hydroxyvaleric acid], the LC retention time turned out to be 1.29 min. Turning to `Cc1ncc(CO)c(CO)c1O` [Pyridoxine], the LC retention time turned out to be 3.78 min.

Regarding `CC(=O)NC(CC(C)C)C(=O)O` (stereo not given) [N-Acetylleucine], the LC retention time was determined as 2.29 min. To `C#CCN(C)C(C)Cc1ccccc1` (stereo not given) [Selegiline] belongs 1.5 min; to `O=P(O)(O)OCC1OC(O)C(O)C(O)C1O` (stereo not given) [Glucose-6-phosphate], 9.86 min. The value for `COc1ccc(-c2coc3cc(O)ccc3c2=O)cc1` [Formononetine] was 1.18 min; that for `CCCCCCCCCCCCCCCCC(=O)O` [Heptadecanoic acid] was 3.01 min. The value for `CCNC(C)Cc1cccc(C(F)(F)F)c1` (stereo not given) [Fenfluramine] was 2.33 min; that for `COCC1OC(n2cc(C)c(=O)[nH]c2=O)CC1O` (stereo not given) [5'-O-Methylthymidine] was 1.46 min. As for `Nc1ccccc1O` [2-Aminophenol], the LC retention time was determined as 1.22 min. The value for `O=c1ccn(C2CC(O)C(CO)O2)c(=O)[nH]1` (stereo not given) [2-Deoxyuridine] was 2.96 min; that for `CNCCCCC(N)C(=O)O` (stereo not given) [N-Methyllysine] was 9.36 min. Consider `CC(=O)OCc1ccccc1` [Benzylacetate], for which the LC retention time was 8.71 min. In the case of `C#CC1(O)CCC2C3C(C)CC4=C(CCC(=O)C4)C3CCC21C` (stereo not given) [Tibolone], the LC retention time was determined as 1 min. The value for `O=C1C2CCCCC2C(=O)N1CCCCN1CCN(c2nsc3ccccc23)CC1` (stereo not given) [Perospirone] was 2.14 min. The value for `NC(N)=NCC(=O)O` [Guanidinoacetic acid] was 8.16 min. The value for `CN(C)CCC(c1ccc(Br)cc1)c1ccccn1` (stereo not given) [Dexbrompheniramine] was 2.56 min; that for `COC(=O)CN` [Methylglycinate] was 5.29 min. Turning to `CC(N)C(=O)NC(C(=O)O)C(C)C` (stereo not given) [Ala-Val], the LC retention time turned out to be 7.66 min. To `CN(CCO)CC(O)Cn1cnc2c1c(=O)n(C)c(=O)n2C` (stereo not given) [Xanthinol] belongs 6.01 min; to `NCCc1c[nH]c2ccccc12` [Tryptamine], 6.92 min. With `COc1ccc2[nH]cc(C3=CCNCC3)c2c1`, the LC retention time turned out to be 4.61 min. The value for `NC(N)=NCCCCC(N)C(=O)O` (stereo not given) [Homoarginine] was 9.34 min; that for `Cc1cn(C2OC(CO)C(O)C2O)c(=O)nc1N` (stereo not given) [5-Methylcytidine] was 6.39 min; that for `O=C(O)C(=O)Cc1c[nH]c2ccccc12` [Indole-3-pyruvic acid] was 5.11 min. The value for `CC(=O)NC(CCCN)C(=O)O` [N-alpha-Acetyl-L-ornithine] was 8.31 min; that for `O=c1c(-c2ccccc2)c1-c1ccccc1` [Diphenylcyclopropenone] was 1.01 min; that for `O=[N+]([O-])c1cccc2cn[nH]c12` [7-Nitroindazole] was 1.03 min. The value for `CC1OC(OCC2OC(Oc3c(-c4ccc(O)cc4)oc4cc(O)cc(O)c4c3=O)C(O)C(O)C2O)C(O)C(O)C1O` (stereo not given) [Kaempferol-3-O-rutinoside] was 6.09 min.

For `CN1C2CC(OC(=O)C(CO)c3ccccc3)CC1C1OC12` (stereo not given) [Scopolamine], the LC retention time was found to be 3.75 min.

Take `Cc1cc2c(s1)Nc1ccccc1N=C2N1CCN(C)CC1` [Olanzapine]: the LC retention time came to 4.56 min. The value for `CC(O)C(O)C1=Nc2c(nc(N)[nH]c2=O)NC1` (stereo not given) [7,8-Dihydrobiopterin] was 7.18 min; that for `Nc1ccn(C2CCC(CO)O2)c(=O)n1` (stereo not given) [2,3-Dideoxycytidine] was 4.54 min. `OC1CCCCC1N1CCC(c2ccccc2)CC1` (stereo not given) [Vesamicol]: the LC retention time came to 2.65 min. The value for `CN[C@@H](CCCCN)C(=O)O` [N.alpha.-Methyl-L-lysine] was 7.35 min; that for `Br.CN1CCC2(c3cccc(O)c3)Cc3nc4ccccc4cc3CC2C1.O` (stereo not given) was 5.11 min. For the molecule `CNC(C)C(=O)O` (stereo not given) [N-Methylalanine], the LC retention time is 7.67 min. Consider `NCCc1ccccc1` [Phenethylamine], for which the LC retention time was 4.87 min. The value for `CC(C)=CCCC(C)=CC(=O)O` [Geranic acid] was 1.3 min. To `CCCN1CC(CSC)CC2c3cccc4[nH]cc(c34)CC21` (stereo not given) [Pergolide] belongs 2.41 min; to `O=C1CCCC(=O)C1` [1,3 Cyclohexanedione], 1.47 min; to `CNc1nc2c(ncn2C2OC(CO)C(O)C2O)c(=O)[nH]1` (stereo not given) [N2-Methylguanosine], 6.4 min.

For the molecule `O=C1CN=C(c2ccccn2)c2cc(Br)ccc2N1` [Bromazepam], the LC retention time was 1.3 min. To `NCCCCNCCCN` [Spermidine] belongs 6.98 min; to `Nc1[nH]c(=O)ncc1CO` [5-Hydroxymethylcytosine], 6.9 min; to `Cc1cn(C2C=CC(CO)O2)c(=O)[nH]c1=O` (stereo not given) [Stavudine], 1.62 min.
